Values of other authors in PMC9516332 (Frontiers in Oncology, 2022).
Like-named read-outs stand apart in the source and are kept apart here.

How the values were obtained:
Details in all cases: cited from earlier work
[1] = target: panel of 255 wild-type kinases (Homo sapiens, UniProt Q9H422)
[2] = target: T1, panel of 255 wild-type kinases (Homo sapiens, UniProt Q8IW41)
T1 sequence (Q8IW41 1-473): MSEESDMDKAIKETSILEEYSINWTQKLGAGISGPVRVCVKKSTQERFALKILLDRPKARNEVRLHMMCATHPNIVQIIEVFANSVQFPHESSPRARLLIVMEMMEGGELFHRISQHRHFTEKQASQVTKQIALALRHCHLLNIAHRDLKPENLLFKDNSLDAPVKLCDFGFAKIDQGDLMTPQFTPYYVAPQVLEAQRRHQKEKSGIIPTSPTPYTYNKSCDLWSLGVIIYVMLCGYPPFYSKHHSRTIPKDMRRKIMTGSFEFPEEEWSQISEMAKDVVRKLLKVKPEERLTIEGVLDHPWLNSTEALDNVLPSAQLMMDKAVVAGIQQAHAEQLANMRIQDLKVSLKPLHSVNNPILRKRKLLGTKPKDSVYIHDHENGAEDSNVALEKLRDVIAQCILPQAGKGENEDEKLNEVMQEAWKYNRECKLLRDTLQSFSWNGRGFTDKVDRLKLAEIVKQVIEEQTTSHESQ

[3] = target: panel of 255 wild-type kinases (Homo sapiens, UniProt P14616)
[4] = target: panel of 255 wild-type kinases (Homo sapiens, UniProt Q16288)
[5] = target: panel of 255 wild-type kinases (Homo sapiens, UniProt P08069)
[6] = target: panel of 255 wild-type kinases (Homo sapiens, UniProt P49137)
[7] = target: panel of 255 wild-type kinases (Homo sapiens, UniProt Q13131)
[8] = target: T2, panel of 255 wild-type kinases (Homo sapiens, UniProt Q06418)
T2 sequence (Q06418 41-890): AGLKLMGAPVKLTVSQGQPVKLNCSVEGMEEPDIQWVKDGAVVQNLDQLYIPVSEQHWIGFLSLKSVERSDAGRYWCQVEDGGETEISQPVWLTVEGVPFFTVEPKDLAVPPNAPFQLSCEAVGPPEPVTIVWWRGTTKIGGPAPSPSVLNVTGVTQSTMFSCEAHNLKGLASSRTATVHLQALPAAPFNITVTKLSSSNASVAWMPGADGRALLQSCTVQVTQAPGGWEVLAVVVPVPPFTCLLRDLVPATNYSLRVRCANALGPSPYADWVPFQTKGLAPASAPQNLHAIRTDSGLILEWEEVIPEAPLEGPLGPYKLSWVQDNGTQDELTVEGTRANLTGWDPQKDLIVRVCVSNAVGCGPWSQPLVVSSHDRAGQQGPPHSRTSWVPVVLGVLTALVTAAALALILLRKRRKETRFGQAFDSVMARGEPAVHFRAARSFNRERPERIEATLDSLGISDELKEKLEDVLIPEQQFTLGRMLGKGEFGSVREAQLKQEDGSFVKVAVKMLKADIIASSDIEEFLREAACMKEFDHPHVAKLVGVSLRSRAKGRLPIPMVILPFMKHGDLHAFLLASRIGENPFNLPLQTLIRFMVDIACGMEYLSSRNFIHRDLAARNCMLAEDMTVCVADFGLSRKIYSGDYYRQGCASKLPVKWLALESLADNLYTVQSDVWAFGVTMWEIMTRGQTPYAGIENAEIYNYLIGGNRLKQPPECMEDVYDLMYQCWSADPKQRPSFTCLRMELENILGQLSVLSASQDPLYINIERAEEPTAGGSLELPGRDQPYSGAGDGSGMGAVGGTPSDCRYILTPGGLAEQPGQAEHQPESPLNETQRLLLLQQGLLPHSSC

[9] = target: panel of 255 wild-type kinases (Homo sapiens, UniProt Q9UM73)
[10] = target: panel of 255 wild-type kinases (Homo sapiens, UniProt P12931)
[11] = target: panel of 255 wild-type kinases (Homo sapiens, UniProt P43405)
[12] = target: panel of 255 wild-type kinases (Homo sapiens, UniProt Q9UPE1)
[13] = kinase HIPK3, 1 µmol/L single concentration, ref DOI: 10.1158/1535-7163.MCT-18-0877
[14] = MAPKAPK5, 1 µmol/L single concentration, ref DOI: 10.1158/1535-7163.MCT-18-0877
[15] = kinase IRR, 1 µmol/L single concentration, ref DOI: 10.1158/1535-7163.MCT-18-0877
[16] = kinase TRKC, 1 µmol/L single concentration, ref DOI: 10.1158/1535-7163.MCT-18-0877
[17] = kinase IGF1R, 1 µmol/L single concentration, ref DOI: 10.1158/1535-7163.MCT-18-0877
[18] = kinase MAPKAPK2, 1 µmol/L single concentration, ref DOI: 10.1158/1535-7163.MCT-18-0877
[19] = AMPKα1/β1/γ1 kinase assay, 1 µmol/L single concentration, ref DOI: 10.1158/1535-7163.MCT-18-0877
[20] = kinase TYRO3, 1 µmol/L single concentration, ref DOI: 10.1158/1535-7163.MCT-18-0877
[21] = ALK kinase assay, 1 µmol/L single concentration, ref DOI: 10.1158/1535-7163.MCT-18-0877
[22] = kinase SRC, 1 µmol/L single concentration, ref DOI: 10.1158/1535-7163.MCT-18-0877
[23] = kinase SYK, 1 µmol/L single concentration, ref DOI: 10.1158/1535-7163.MCT-18-0877
[24] = MSSK1, 1 µmol/L single concentration, ref DOI: 10.1158/1535-7163.MCT-18-0877

CC#CC(=O)N1CCC[C@H]1c1nc(-c2ccc(C(=O)Nc3ccccn3)cc2)c2c(N)nccn12 [acalabrutinib]
%-inhibition at 1 µmol/L, HIPK3 [1, 13]: -12%
%-inhibition, MAPKAPK5 [2, 14]: -1.87%
%-inhibition at 1 µmol/L, IRR [3, 15]: -0.87%
%-inhibition at 1 µmol/L, TRKC [4, 16]: 11%
%-inhibition at 1 µmol/L, IGF1R [5, 17]: 0.466%
%-inhibition at 1 µmol/L, MAPKAPK2 [6, 18]: -21%
%-inhibition AMPKα1/β1/γ1 [7, 19]: -5%
%-inhibition at 1 µmol/L, TYRO3 [8, 20]: 3%
%-inhibition ALK [9, 21]: 5.27%
%-inhibition at 1 µmol/L, SRC [10, 22]: 10%
%-inhibition at 1 µmol/L, SYK [11, 23]: -19%
%-inhibition, MSSK1 [12, 24]: -5%

CCc1cc2c(cc1N1CCC(N3CCOCC3)CC1)C(C)(C)c1[nH]c3cc(C#N)ccc3c1C2=O [alectinib]
%-inhibition at 1 µmol/L, HIPK3 [1, 13]: 3.19%
%-inhibition, MAPKAPK5 [2, 14]: -2.38%
%-inhibition at 1 µmol/L, IRR [3, 15]: 57%
%-inhibition at 1 µmol/L, TRKC [4, 16]: 31%
%-inhibition at 1 µmol/L, IGF1R [5, 17]: 10%
%-inhibition at 1 µmol/L, MAPKAPK2 [6, 18]: -5.66%
%-inhibition AMPKα1/β1/γ1 [7, 19]: 5%
%-inhibition at 1 µmol/L, TYRO3 [8, 20]: 30%
%-inhibition at 1 µmol/L, SRC [10, 22]: 10%
%-inhibition at 1 µmol/L, SYK [11, 23]: -9%
%-inhibition, MSSK1 [12, 24]: 97%

COc1cc(N2CCC(N3CCN(C)CC3)CC2)ccc1Nc1ncc(Cl)c(Nc2ccccc2P(C)(C)=O)n1 [brigatinib]
%-inhibition at 1 µmol/L, HIPK3 [1]: 7%
%-inhibition, MAPKAPK5 [2]: 3.41%
%-inhibition at 1 µmol/L, IRR [3]: 99%
%-inhibition at 1 µmol/L, TRKC [4]: 53%
%-inhibition at 1 µmol/L, IGF1R [5]: 99%
%-inhibition at 1 µmol/L, MAPKAPK2 [6]: -14%
%-inhibition AMPKα1/β1/γ1 [7]: 80%
%-inhibition at 1 µmol/L, TYRO3 [8]: 27%
%-inhibition ALK [9]: 100%
%-inhibition at 1 µmol/L, SRC [10]: 65%
%-inhibition at 1 µmol/L, SYK [11]: 68%
%-inhibition, MSSK1 [12]: 5.3%

Cc1cc(Nc2ncc(Cl)c(Nc3ccccc3S(=O)(=O)C(C)C)n2)c(OC(C)C)cc1C1CCNCC1 [ceritinib]
%-inhibition at 1 µmol/L, HIPK3 [1, 13]: 7.48%
%-inhibition, MAPKAPK5 [2, 14]: -2.68%
%-inhibition at 1 µmol/L, IRR [3, 15]: 102%
%-inhibition at 1 µmol/L, TRKC [4, 16]: 9%
%-inhibition at 1 µmol/L, IGF1R [5, 17]: 103%
%-inhibition at 1 µmol/L, MAPKAPK2 [6, 18]: -14%
%-inhibition AMPKα1/β1/γ1 [7, 19]: 21%
%-inhibition at 1 µmol/L, TYRO3 [8, 20]: 7%
%-inhibition ALK [9, 21]: 99%
%-inhibition at 1 µmol/L, SRC [10, 22]: 9%
%-inhibition at 1 µmol/L, SYK [11, 23]: 5%
%-inhibition, MSSK1 [12, 24]: 36%

O=C(c1ccc(F)c(F)c1Nc1ccc(I)cc1F)N1CC(O)([C@@H]2CCCCN2)C1 [cobimetinib]
%-inhibition at 1 µmol/L, HIPK3 [1, 13]: 2.74%
%-inhibition, MAPKAPK5 [2, 14]: -1%
%-inhibition at 1 µmol/L, IRR [3, 15]: -0.403%
%-inhibition at 1 µmol/L, TRKC [4, 16]: -1.37%
%-inhibition at 1 µmol/L, IGF1R [5, 17]: 6%
%-inhibition at 1 µmol/L, MAPKAPK2 [6, 18]: -7%
%-inhibition AMPKα1/β1/γ1 [7, 19]: -0.873%
%-inhibition at 1 µmol/L, TYRO3 [8, 20]: 4.55%
%-inhibition ALK [9, 21]: 5%
%-inhibition at 1 µmol/L, SRC [10, 22]: 6.45%
%-inhibition at 1 µmol/L, SYK [11, 23]: -23%
%-inhibition, MSSK1 [12, 24]: 1.46%
